The values that follow come from patent publication US10774102B2, “Galactoside inhibitor of galectins” (Galecto Biotech AB, priority 2015, dated 2020).

The Kd is the constant that tells how readily two partners part at equilibrium. For orientation: bioavailability means dose-corrected exposure relative to a reference, in per cent. As usually defined, the Cmax is the highest concentration seen after dosing. The clearance is the rate of elimination divided by the concentration.

galectin-3, sequence (P17931 whole entry): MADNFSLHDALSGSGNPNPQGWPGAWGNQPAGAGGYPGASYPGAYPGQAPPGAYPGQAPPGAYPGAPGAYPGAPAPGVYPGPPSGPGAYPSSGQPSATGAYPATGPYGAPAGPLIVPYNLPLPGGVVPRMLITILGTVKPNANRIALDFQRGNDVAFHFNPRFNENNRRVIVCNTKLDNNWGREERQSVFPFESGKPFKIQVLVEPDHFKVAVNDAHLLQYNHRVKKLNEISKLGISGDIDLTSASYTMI

The first data set addresses galectin-3 (Homo sapiens (Human), UniProt P17931). Description: Fluorescence anisotropy assay of galectin-3 affinity (compound inhibits galectin binding to a fluorescein tagged saccharide probe). The following applies: high affinity probe, 50 nM galectin-3, 100 nM albumin. On the procedure: 100 nM albumin was included as a carrier to prevent protein loss at such low concentration of galectin.
(In general: Fluorescence polarisation rises when a labelled molecule tumbles more slowly, as on binding a larger partner.)
With `OC[C@H]1O[C@H](Sc2ccc(F)cc2)[C@H](O)[C@@H](n2cc(-c3cc(F)c(F)c(F)c3)nn2)[C@H]1O` [Example 30, 4-Fluorophenyl 3-deoxy-3-[4-(3,4,5-trifluorophenyl)-1H-1,2,3-triazol-1-yl]-1-thio-α-D-galactopyranoside], the Kd was found to be 270 nM. The same measure, in the same setting: in the case of `OC[C@H]1O[C@H](Sc2ccc(OC(F)(F)F)cc2)[C@H](O)[C@@H](n2cc(-c3cc(F)c(F)c(F)c3)nn2)[C@H]1O` [Example 31, 4-Trifluoromethoxyphenyl 3-deoxy-3-[4-(3,4,5-trifluorophenyl)-1H-1,2,3-triazol-1-yl]-1-thio-α-D-galactopyranoside] it was 280 nM.

Take `OC[C@H]1O[C@H](Oc2ccccc2)[C@H](O)[C@@H](n2cc(-c3cc(F)c(F)c(F)c3)nn2)[C@H]1O` [Example 32, Phenyl 3-deoxy-3-[4-(3,4,5-trifluorophenyl)-1H-1,2,3-triazol-1-yl]-α-D-galactopyranoside]: the Kd came to 1000 nM. Still for that read-out and setting: in the case of `OC[C@H]1O[C@H](Oc2cccc(Cl)c2)[C@H](O)[C@@H](n2cc(-c3cc(F)c(F)c(F)c3)nn2)[C@H]1O` [Example 33, 3-Chlorophenyl 3-deoxy-3-[4-(3,4,5-trifluorophenyl)-1H-1,2,3-triazol-1-yl]-α-D-galactopyranoside] it was 250 nM; in that of `OC[C@H]1O[C@H](Oc2ccc(Cl)cc2)[C@H](O)[C@@H](n2cc(-c3cc(F)c(F)c(F)c3)nn2)[C@H]1O` [Example 34, 4-Chlorophenyl 3-deoxy-3-[4-(3,4,5-trifluorophenyl)-1H-1,2,3-triazol-1-yl]-α-D-galactopyranoside], 570 nM; in that of `OC[C@H]1O[C@H](SC2CCCCC2)[C@H](O)[C@@H](n2cc(-c3cc(F)c(F)c(F)c3)nn2)[C@H]1O` [Example 35, Cyclohexyl 3-deoxy-3-[4-(3,4,5-trifluorophenyl)-1H-1,2,3-triazol-1-yl]-1-thio-α-D-galactopyranoside], 440 nM. On the same count and under the same terms, in the case of `OC[C@H]1O[C@H](Sc2cc(Cl)c(Cl)cc2Cl)[C@H](O)[C@@H](n2cc(-c3cc(F)c(F)c(F)c3)nn2)[C@H]1O` [Example 36, 2,4,5-Trichlorophenyl 3-deoxy-3-[4-(3,4,5-trifluorophenyl)-1H-1,2,3-triazol-1-yl]-1-thio-α-D-galactopyranoside] it was 60 nM; in that of `OC[C@H]1O[C@H](Sc2cc(Cl)ccc2Cl)[C@H](O)[C@@H](n2cc(-c3cc(F)c(F)c(F)c3)nn2)[C@H]1O` [Example 37, 2,5-Dichlorophenyl 3-deoxy-3-[4-(3,4,5-trifluorophenyl)-1H-1,2,3-triazol-1-yl]-1-thio-α-D-galactopyranoside], 84 nM.

`OC[C@H]1O[C@H](Sc2cccc(O)c2)[C@H](O)[C@@H](n2cc(-c3cc(F)c(F)c(F)c3)nn2)[C@H]1O` [Example 38, 3-Hydroxy-phenyl 3-deoxy-3-[4-(3,4,5-trifluorophenyl)-1H-1,2,3-triazol-1-yl]-1-thio-α-D-galactopyranoside] displayed a Kd of 490 nM. Still for that read-out and setting: in the case of `[O-][S+](c1cccc(Br)c1)[C@H]1O[C@H](CO)[C@H](O)[C@H](n2cc(-c3cc(F)c(F)c(F)c3)nn2)[C@H]1O` (stereo partly drawn) [Example 39, 3-Bromophenyl 3-deoxy-3-[4-(3,4,5-trifluorophenyl)-1H-1,2,3-triazol-1-yl]-α-D-galactopyranosyl sulfoxide] it was 23 nM; in that of `OCC1O[C@H](SCCc2ccccc2)C(O)[C@@H](n2cc(-c3cc(F)c(F)c(F)c3)nn2)[C@H]1O` (stereo partly drawn) [Example 40, 2-Phenethyl 3-deoxy-3-[4-(3,4,5-trifluorophenyl)-1H-1,2,3-triazol-1-yl]-1-thio-α-D-galactopyranoside], 480 nM. On the same count and under the same terms, in the case of `[O-][S+](c1ccc(Cl)c(Cl)c1)[C@H]1O[C@H](CO)[C@H](O)[C@H](n2cc(-c3c(F)c(F)c(F)c(F)c3F)nn2)[C@H]1O` (stereo partly drawn) [Example 42, 3,4-Dichlorophenyl 3-deoxy-3-[4-(2,3,4,5,6-pentafluorophenyl)-1H-1,2,3-triazol-1-yl]-α-D-galactopyranosyl sulfoxide] it was 2 nM; in that of `O=S(=O)(c1ccc(Cl)c(Cl)c1)[C@H]1O[C@H](CO)[C@H](O)[C@H](n2cc(-c3c(F)c(F)c(F)c(F)c3F)nn2)[C@H]1O` [Example 53, 3,4-Dichlorophenyl 3-deoxy-3-[4-(2,3,4,5,6-pentafluorophenyl)-1H-1,2,3-triazol-1-yl]-α-D-galactopyranosyl sulfone], 13 nM; in that of `OC[C@H]1O[C@H](Sc2ccc(F)c(Br)c2)[C@H](O)[C@@H](n2cc(-c3cc(F)c(F)c(F)c3)nn2)[C@H]1O` [Example 60, 3-Bromo-4-fluorophenyl 3-deoxy-3-[4-(3,4,5-trifluorophenyl)-1H-1,2,3-triazol-1-yl]-1-thio-α-D-galactopyranoside], 24 nM. Same read-out and setting: in the case of `COc1ccc(Cl)cc1S[C@H]1OC(CO)[C@H](O)[C@H](n2cc(-c3cc(F)c(F)c(F)c3)nn2)C1O` (stereo partly drawn) [Example 65, 5-Chloro-2-methoxyphenyl 3-deoxy-1-thio-3-[4-(3,4,5-trifluorophenyl)-1H-1,2,3-triazol-1-yl]-α-D-galactopyranoside] it was 84 nM; in that of `OCC1O[C@H](SC2CCCC(F)(F)C2)C(O)[C@@H](n2cc(-c3cc(F)c(F)c(F)c3)nn2)[C@H]1O` (stereo partly drawn) [Example 76, 3,3′-difluoro-cyklohexyl 3-deoxy-3-[4-(3,4,5-trifluorophenyl)-1H-1,2,3-triazol-1-yl]-1-thio-α-D-galactopyranoside], 240 nM. Take `O=S(=O)(c1cncc(Br)c1)[C@H]1O[C@H](CO)[C@H](O)[C@H](n2cc(-c3cc(F)c(F)c(F)c3)nn2)[C@H]1O` [Example 92, 5-Bromopyridin-3-yl 3-deoxy-3-[4-(3,4,5-trifluorophenyl)-1H-1,2,3-triazol-1-yl]-α-D-galactopyranosyl sulfone]: the affinity, expressed as Kd, was 31 nM. On the same count and under the same terms, in the case of `CN(C)c1cccc2cc(S(=O)(=O)[C@H]3OC(CO)[C@H](O)[C@H](n4cc(-c5cc(F)c(F)c(F)c5)nn4)C3O)ccc12` (stereo partly drawn) [Example 95, 5-Dimethylamino-naphtalen-2-yl 3-deoxy-3-[4-(3,4,5-trifluorophenyl)-1H-1,2,3-triazol-1-yl]-α-D-galactopyranosyl sulfone] it was 960 nM. The same measure, in the same setting: next, `O=C(N[C@@H]1C(O)[C@@H](Sc2ccc(Cl)c(Cl)c2)OC(CO)[C@@H]1O)c1cc(F)c(F)c(F)c1` (stereo partly drawn) [Example 96, 3,4-dichlorophenyl-3-deoxy-3-(3,4,5-trifluorobenzamido)-1-thio-α-D-galactopyranoside]: 3500 nM; `CCOC(=O)c1cn([C@@H]2[C@@H](O)[C@@H](Sc3ccc(Cl)c(Cl)c3)O[C@H](CO)[C@@H]2O)nn1` [Example 97, 3,4-Dichlorophenyl 3-deoxy-3-[4-(ethoxycarbonyl)-1H-1,2,3-triazol-1-yl]-1-thio-α-D-galactopyranoside]: 3500 nM; `O=c1oc2ccc(F)c(F)c2cc1CO[C@@H]1[C@@H](O)[C@@H](Sc2ccc(Cl)c(Cl)c2)O[C@H](CO)[C@@H]1O` [Example 99, 3,4-Dichlorophenyl 3-O-[(5,6-Difluoro-2-oxo-3-chromenyl)methyl]-1-thio-α-D-galactopyranoside]: 920 nM. The same measure, in the same setting: in the case of `CCCC(=O)c1cn([C@@H]2[C@@H](O)[C@@H](Sc3ccc(Cl)c(Cl)c3)O[C@H](CO)[C@@H]2O)nn1` [Example 102, 3,4-Dichlorophenyl 3-deoxy-3-[4-(propyl-carbonyl)-1H-1,2,3-triazol-1-yl]-1-thio-α-D-galactopyranoside] it was 1010 nM.

Tested on in the next data set: not listed separately
As to the kind of experiment: Pharmacokinetic studies in mice. To be noted: mouse, in vivo, 10 mg/kg, oral, read-out: Bioavailability (F). From the text:
This is exemplified by Example 9 3,4-Dichlorophenyl 3-deoxy-3-[4-(3,4,5-trifluorophenyl)-1H-1,2,3-triazol-1-yl]-1-thio-α-D-galactopyranoside in the table below.
With `OC[C@H]1O[C@H](Sc2ccc(Cl)c(Cl)c2)[C@H](O)[C@@H](n2cc(-c3cc(F)c(F)c(F)c3)nn2)[C@H]1O` [Example 9, 3,4-Dichlorophenyl 3-deoxy-3-[4-(3,4,5-trifluorophenyl)-1H-1,2,3-triazol-1-yl]-1-thio-α-D-galactopyranoside], the bioavailability worked out at 75%.

The same data set, now with this note: mouse, in vivo, po, 10 mg/kg.
As to `OC[C@H]1O[C@H](Sc2ccc(Cl)c(Cl)c2)[C@H](O)[C@@H](n2cc(-c3cc(F)c(F)c(F)c3)nn2)[C@H]1O` [Example 9, 3,4-Dichlorophenyl 3-deoxy-3-[4-(3,4,5-trifluorophenyl)-1H-1,2,3-triazol-1-yl]-1-thio-α-D-galactopyranoside], the Cmax was 16 µM.

The data set is the same for the next values; noted with them: mouse, in vivo, read-out: Clearance (CL).
Take `OC[C@H]1O[C@H](Sc2ccc(Cl)c(Cl)c2)[C@H](O)[C@@H](n2cc(-c3cc(F)c(F)c(F)c3)nn2)[C@H]1O` [Example 9, 3,4-Dichlorophenyl 3-deoxy-3-[4-(3,4,5-trifluorophenyl)-1H-1,2,3-triazol-1-yl]-1-thio-α-D-galactopyranoside]: the clearance is 1.2 mL/min/kg.

Staying with this data set, now noted: mouse, in vivo, read-out: Halflife (t½) (converted).
`OC[C@H]1O[C@H](Sc2ccc(Cl)c(Cl)c2)[C@H](O)[C@@H](n2cc(-c3cc(F)c(F)c(F)c3)nn2)[C@H]1O` [Example 9, 3,4-Dichlorophenyl 3-deoxy-3-[4-(3,4,5-trifluorophenyl)-1H-1,2,3-triazol-1-yl]-1-thio-α-D-galactopyranoside]: the half-life was 270 min.

A further data set concerns the target galectins.
Assay: not given
The following applies: all galectins; cited from earlier work.
On to `OC[C@H]1O[C@@H](O[C@H]2[C@H](O)[C@@H](O)C(O)O[C@@H]2CO)[C@H](O)[C@@H](O)[C@H]1O` (stereo partly shown) [lactose], for which the dissociation constant (Kd) was 500 to 1000 µM.

Still in this data set, the particulars now being: galectins; compared with lactose; cited from earlier work.
As for `O=C[C@H](O)[C@@H](O)[C@@H](O)[C@H](O)CO` [D-galactose, D-(+)-galactose], the “affinity relative to lactose (times lower)” value is 50-100 times lower.
